Measurements: patent US20120010075A1 (priority 2009, published 2012)
Read-outs that look alike come from different tables or passages of the source.

Legend:
[1] = test system: Leptosphaeria nodorum (LEPTNO); assay: In vitro fungitoxicity of hydrazones with and without copper towards Leptosphaeria nodorum (Example 26); type: cell-based; details: 72 h at 25° C.; for inhibition of growth at 0.05 µg/mL: Parastagonospora nodorum, 72 h, copper-minus medium, read-out: LEPTNO % Inhn. Minus Copper Observed
[2] = test system: Phytophthora infestans; type: in vivo, Phytophthora infestans on tomato; details: applied 24 h before inoculation, assessed 7 days after inoculation
[3] = compound 0.05 μg/mL, copper-plus medium (CuCl2.2H2O)
[4] = hydrazone 50 ppm + 50 μM CuCl2.2H2O, tomato
[5] = test compound Concn. 0.05 μg/mL
[6] = copper-plus medium (CuCl2 10 μM), test compound Concn. 0.05 μg/mL
[7] = hydrazone 50 ppm with 50 μM CuCl2.2H2O, tomato late blight

Row | Structure (SMILES) | melting point [°C] | inhibition of growth at 0.05 µg/mL ([1]; compound 0.05 μg/mL) [%] | LEPTNO % Inhn. Plus Copper Observed [1, 3] [%] | TLB % Control [2, 4] [%] | inhibition of growth at 0.05 µg/mL [1, 5] [%] | LEPTNO % Inhn. Plus Copper Observed [1, 6] [%] | TLB % Control [2, 7] [%]
1 | O=C(N/N=C/c1cc(Cl)cc(Cl)c1O)c1cc(Cl)cc(Cl)c1 [Example 79] | 248 to 249 | 12.2 | 97.1 | 84.4 |  |  | 
2 | COc1cccc(C(=O)N/N=C/c2cc(Cl)ccc2O)c1C [Example 133] | 122 to 128 | 8.8 | 98.5 | 71.9 |  |  | 
3 | Cc1cc(C)cc(C(=O)N/N=C/c2cc(Cl)cc(Br)c2O)c1 [Example 168] | 223 to 226 | 13.3 | 97.7 | 59.6 |  |  | 
4 | O=C(N/N=C(/c1ccccc1O)C(F)(F)F)c1ccccc1 [Example 591] | 208 to 210 |  |  |  | 0 | 9.9 | 11.0
5 | COc1ccccc1C(=O)N/N=C(\C)c1cc(Cl)cc(Cl)c1O [Example 141] | 307 to 310 | 1.5 | 96.2 | 52.0 |  |  | 
6 | COc1ccc(O)c(C(=O)N/N=C/c2cc(Cl)cc(Cl)c2O)c1 [Example 487] | 250 to 252 |  |  |  | 11.2 | 93.9 | 100.0
7 | C/C(=N\NC(=O)c1cccc(Cl)c1)c1cc(Cl)ccc1O [Example 509] | 244 to 249 |  |  |  | 0 | 96.2 | 85.0
8 | Cc1cccc(C(=O)N/N=C/c2c(Cl)ccc(Cl)c2O)c1 [Example 365] | 214 to 216 |  |  |  | 13.8 | 95.6 | 95.0
9 | Cc1cccc(C(=O)N/N=C/c2cc(Cl)ccc2O)c1 [Example 419] | 188 to 196 |  |  |  | 3.2 | 94.9 | 90.0
10 | O=C(N/N=C/c1cc(C(F)(F)F)cc(C(F)(F)F)c1O)c1cccc(F)c1 [Example 334] | 240 to 242 |  |  |  | 10.9 | 97.8 | 98.0
11 | Cc1ccc(C(=O)N/N=C/c2cccc(Cl)c2O)cc1 [Example 424] | 230 to 232 |  |  |  | 22.3 | 97.0 | 100.0
12 | O=C(N/N=C/c1cc(C(F)(F)F)cc(Cl)c1O)c1ccc([N+](=O)[O-])cc1 [Example 328] | 253 to 255 |  |  |  | 0 | 95.1 | 99.0
13 | Cc1cccc(C(=O)N/N=C/c2cccc(C(F)(F)F)c2O)c1 [Example 343] | 188 to 190 |  |  |  | 2.8 | 95.4 | 97.0
14 | COc1cc(O)c(/C(C)=N/NC(=O)c2ccc(Br)cc2)c(OC)c1 [Example 570] | 134 to 159 |  |  |  | 3.2 | 97.2 | 39.0
15 | COc1ccc(/C(C)=N/NC(=O)c2ccc(Cl)cc2)c(O)c1OC [Example 557] | 230 to 235 |  |  |  | 13 | 95.7 | 90.0
16 | N#Cc1cc(Br)c(O)c(/C=N/NC(=O)c2ccccc2)c1 [Example 306] | 290 to 291 |  |  |  | 0 | 95.2 | 35.0
17 | C/C(=N\NC(=O)c1cccc(C)c1)c1cc(Br)ccc1O [Example 289] | 227 to 233 | 0 | 97.6 | 45.0 |  |  | 
18 | O=C(N/N=C/c1cccc(Cl)c1O)c1cccc(F)c1 [Example 425] | 178 to 184 |  |  |  | 17.5 | 97.6 | 95.0
19 | CC/C(=N\NC(=O)c1c(Cl)cccc1Cl)c1ccccc1O [Example 48] | 181 to 184 | 0.3 | 94.6 | 40.0 |  |  | 
20 | O=C(N/N=C/c1cc(Cl)c(Cl)cc1O)c1ccccc1 [Example 240] | 238 to 241 | 0 | 98.1 | 74.6 |  |  | 
